# pIC50: −log10 of the molar value.
# Target: T1, human TLR7 (Homo sapiens, UniProt Q9NYK1)
# T1 sequence (Q9NYK1 27-1049): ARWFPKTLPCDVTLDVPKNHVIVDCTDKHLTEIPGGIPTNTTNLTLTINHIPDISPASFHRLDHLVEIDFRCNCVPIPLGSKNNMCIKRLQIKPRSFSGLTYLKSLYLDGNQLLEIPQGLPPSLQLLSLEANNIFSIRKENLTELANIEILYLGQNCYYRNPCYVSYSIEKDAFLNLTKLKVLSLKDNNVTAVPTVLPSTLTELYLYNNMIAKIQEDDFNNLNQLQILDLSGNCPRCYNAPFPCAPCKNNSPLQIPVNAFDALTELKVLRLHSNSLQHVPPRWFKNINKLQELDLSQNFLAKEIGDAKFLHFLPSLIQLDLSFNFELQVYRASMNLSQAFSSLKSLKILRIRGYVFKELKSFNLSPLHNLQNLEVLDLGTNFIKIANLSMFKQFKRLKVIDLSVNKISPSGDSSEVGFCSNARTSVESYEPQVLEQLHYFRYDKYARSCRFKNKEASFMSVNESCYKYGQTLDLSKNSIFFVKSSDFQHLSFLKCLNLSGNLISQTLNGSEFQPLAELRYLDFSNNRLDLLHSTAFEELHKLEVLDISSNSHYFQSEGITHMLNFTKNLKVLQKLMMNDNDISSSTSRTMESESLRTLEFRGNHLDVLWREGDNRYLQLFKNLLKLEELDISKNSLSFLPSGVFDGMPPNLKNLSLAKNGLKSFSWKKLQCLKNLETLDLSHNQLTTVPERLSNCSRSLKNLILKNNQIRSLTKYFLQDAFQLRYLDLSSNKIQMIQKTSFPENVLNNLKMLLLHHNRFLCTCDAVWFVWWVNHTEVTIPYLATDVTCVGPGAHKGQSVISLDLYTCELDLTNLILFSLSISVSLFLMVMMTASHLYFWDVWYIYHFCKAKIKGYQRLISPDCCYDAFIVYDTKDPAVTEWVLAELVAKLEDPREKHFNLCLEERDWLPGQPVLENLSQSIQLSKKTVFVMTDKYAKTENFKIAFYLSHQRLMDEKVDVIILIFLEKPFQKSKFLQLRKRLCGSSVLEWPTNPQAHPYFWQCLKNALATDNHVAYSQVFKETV
# Experiment: HEK293-Blue-hTLR-7 cells assay (SEAP reporter, R848 stimulation)
# Type: cell-based
# Conditions: HEK293-Blue-hTLR7 cells, R848 ligand, 20 hrs incubation
# Method: The following tests were carried out in order to determine the activity of the compounds of formula (I) in HEK293-Blue-hTLR-7/8/9 cells assay.
# HEK293-Blue-hTLR-7 Cells Assay:
# A stable HEK293-Blue-hTLR-7 cell line was purchased from InvivoGen (Cat. #: hkb-htlr7, San Diego, Calif., USA). These cells were originally designed for studying the stimulation of human TLR7 by monitoring the activation of NF-κB. A SEAP (secreted embryonic alkaline phosphatase) reporter gene was placed under the control of the IFN-β minimal promoter fused to five NF-κB and AP-1-binding sites. The SEAP was induced by activating NF-κB and AP-1 via stimulating HEK-Blue hTLR7 cells with TLR7 ligands. Therefore the reporter expression was declined by TLR7 antagonist under the stimulation of a ligand, such as R848 (Resiquimod), for incubation of 20 hrs. The cell culture supernatant SEAP reporter activity was determined using QUANTI-Blue™ kit (Cat. #: rep-qb1, Invivogen, San Diego, Ca, USA) at a wavelength of 640 nm, a detection medium that turns purple or blue in the presence of alkaline phosphatase.
# HEK293-Blue-hTLR7 cells were incubated at a density of 250,000-450,000 cells/mL in a volume of 170 μL in a 96-well plate in Dulbecco's Modified Eagle's medium (DMEM) containing 4.5 g/L glucose, 50 U/mL penicillin, […], […], 2 mM L-glutamine, 10% (v/v) heat-inactivated fetal bovine serum with addition of 20 μL test compound in a serial dilution in the presence of final DMSO at 1% and 10 μL of 20 uM R848 in above DMEM, perform incubation under 37° C. in a CO2 incubator for 20 hrs. Then 20 μL of the supernatant from each well was incubated with 180 μL Quanti-blue substrate solution at 37° C. for 2 hrs and the absorbance was read at 620-655 nm using a spectrophotometer. The signalling pathway that TLR7 activation leads to downstream NF-κB activation has been widely accepted, and therefore similar reporter assay was modified for evaluating TLR7 antagonist.
row,Compound,pIC50
1,"N#Cc1ccc(N2C[C@H](CN3CCC(N4CCNCC4)CC3)[C@@H](C(F)(F)F)C2)c2cccnc12 [Example 52, 5-[(3S,4R)-3-[(4-piperazin-1-yl-1-piperidyl)methyl]-4-(trifluoromethyl)pyrrolidin-1-yl]quinoline-8-carbonitrile]",7.41
2,"N#Cc1ccc(N2C[C@H](CN3CC4(CC(N)C4)C3)[C@@H](C(F)(F)F)C2)c2cccnc12 [Example 53, 5-[(3S,4R)-3-[(6-Amino-2-azaspiro[3.3]heptan-2-yl)methyl]-4-(trifluoromethyl)pyrrolidin-1-yl]quinoline-8-carbonitrile]",6.94
3,"N#Cc1ccc(N2C[C@H](CN3CCC4(CCNC4)CC3)[C@@H](C(F)(F)F)C2)c2cccnc12 [Example 54, 5-[(3S,4R)-3-(2,8-Diazaspiro[4.5]decan-8-ylmethyl)-4-(trifluoromethyl)pyrrolidin-1-yl]quinoline-8-carbonitrile]",7.04
4,"N#Cc1ccc(N2C[C@H](CN3CCC4(CCCNC4)CC3)[C@@H](C(F)(F)F)C2)c2cccnc12 [Example 55, 5-[(3S,4R)-3-(2,9-Diazaspiro[5.5]undecan-9-ylmethyl)-4-(trifluoromethyl)pyrrolidin-1-yl]quinoline-8-carbonitrile]",6.95
5,"N#Cc1ccc(N2C[C@H](CN3CCC4(CCNCC4)C3)[C@@H](C(F)(F)F)C2)c2cccnc12 [Example 56, 5-[(3S,4R)-3-(2,8-Diazaspiro[4.5]decan-2-ylmethyl)-4-(trifluoromethyl)pyrrolidin-1-yl]quinoline-8-carbonitrile]",6.95
6,"N#Cc1ccc(N2C[C@H](CN3CCCC4(CCNCC4)C3)[C@@H](C(F)(F)F)C2)c2cccnc12 [Example 57, 5-[(3S,4R)-3-(2,9-Diazaspiro[5.5]undecan-2-ylmethyl)-4-(trifluoromethyl)pyrrolidin-1-yl]quinoline-8-carbonitrile]",7.14
7,"N#Cc1ccc(N2CC(CN3CCC(N4CCOCC4)CC3)C3(CC3)C2)c2nccnc12 (stereo not drawn) [Example 58, 8-[7-[(4-Morpholino-1-piperidyl)methyl]-5-azaspiro[2.4]heptan-5-yl]quinoxaline-5-carbonitrile]",6.50
8,"N#Cc1ccc(N2C[C@H](CN3CCNCC3)[C@@H](C(F)(F)F)C2)c2nccnc12 [Example 59, 8-[(3S,4R)-3-(Piperazin-1-ylmethyl)-4-(trifluoromethyl)pyrrolidin-1-yl]quinoxaline-5-carbonitrile]",7.74
9,"N#Cc1ccc(N2C[C@H](CN3CCC(N4CCCC4)CC3)[C@@H](C(F)(F)F)C2)c2nccnc12 [Example 60, 8-[(3S,4R)-3-[(4-Pyrrolidin-1-yl-1-piperidyl)methyl]-4-(trifluoromethyl)pyrrolidin-1-yl]quinoxaline-5-carbonitrile]",7.54
10,"N#Cc1ccc(N2C[C@H](CN3CCC(N4CCCCC4)CC3)[C@@H](C(F)(F)F)C2)c2nccnc12 [Example 61, 8-[(3S,4R)-3-[[4-(1-Piperidyl)-1-piperidyl]methyl]-4-(trifluoromethyl)pyrrolidin-1-yl]quinoxaline-5-carbonitrile]",7.66
11,"N#Cc1ccc(N2C[C@H](CN3CCC(N4CCCCCC4)CC3)[C@@H](C(F)(F)F)C2)c2nccnc12 [Example 62, 8-[(3S,4R)-3-[[4-(Azepan-1-yl)-1-piperidyl]methyl]-4-(trifluoromethyl)pyrrolidin-1-yl]quinoxaline-5-carbonitrile]",7.47
12,"N#Cc1ccc(N2C[C@H](CN3C4CCC3CC(N)C4)[C@@H](C(F)(F)F)C2)c2nccnc12 (stereo partly drawn) [Example 63, 8-[(3S,4R)-3-[(3-amino-8-azabicyclo[3.2.1]octan-8-yl)methyl]-4-(trifluoromethyl)pyrrolidin-1-yl]quinoxaline-5-carbonitrile]",7.24
13,"N#Cc1ccc(N2C[C@H](CN3CCC(N)C(F)(F)C3)[C@@H](C(F)(F)F)C2)c2nccnc12 (stereo partly drawn) [Example 64, 8-[(3S,4R)-3-[(4-amino-3,3-difluoro-1-piperidyl)methyl]-4-(trifluoromethyl)pyrrolidin-1-yl]quinoxaline-5-carbonitrile]",7.44
14,"N#Cc1ccc(N2CC(CN3CCC4(CCCCN4)CC3)C3(CC3)C2)c2nccnc12 (stereo not drawn) [Example 65, 8-[7-(1,9-Diazaspiro[5.5]undecan-9-ylmethyl)-5-azaspiro[2.4]heptan-5-yl]quinoxaline-5-carbonitrile]",6.97
15,"N#Cc1ccc(N2CC(CN3CCC4NCC4C3)C3(CC3)C2)c2nccnc12 (stereo not drawn) [Example 66, 8-[7-(3,7-Diazabicyclo[4.2.0]octan-3-ylmethyl)-5-azaspiro[2.4]heptan-5-yl]quinoxaline-5-carbonitrile]",7.20
16,"N#Cc1ccc(N2CC(CN3CCOC4(CCNCC4)C3)C3(CC3)C2)c2nccnc12 (stereo not drawn) [Example 67, 8-[7-(1-Oxa-4,9-diazaspiro[5.5]undecan-4-ylmethyl)-5-azaspiro[2.4]heptan-5-yl]quinoxaline-5-carbonitrile]",6.88
17,"N#Cc1ccc(N2CC(CN3CCC(N)CC3)C3(CC3)C2)c2nccnc12 (stereo not drawn) [Example 68, 8-[7-[(4-Amino-1-piperidyl)methyl]-5-azaspiro[2.4]heptan-5-yl]quinoxaline-5-carbonitrile]",7.12
18,"N#Cc1ccc(N2C[C@H](CN3CCCC(C(N)=O)C3)[C@@H](C(F)(F)F)C2)c2nccnc12 (stereo partly drawn) [Example 69, 1-[[(3S,4R)-1-(S-cyanoquinoxalin-5-yl)-4-(trifluoromethyl)pyrrolidin-3-yl]methyl]piperidine-3-carboxamide]",6.87
19,"N#Cc1ccc(N2C[C@H](CN3CCC4(CC3)CNCCO4)[C@@H](C(F)(F)F)C2)c2nccnc12 [Example 70, 8-[(3S,4R)-3-(1-oxa-4,9-diazaspiro[5.5]undecan-9-ylmethyl)-4-(trifluoromethyl)pyrrolidin-1-yl]quinoxaline-5-carbonitrile]",7.92
20,"N#Cc1ccc(N2C[C@H](CNC3CCNCC3)[C@@H](C(F)(F)F)C2)c2nccnc12 [Example 71, 8-[(3S,4R)-3-[(4-piperidylamino)methyl]-4-(trifluoromethyl)pyrrolidin-1-yl]quinoxaline-5-carbonitrile]",7.41
21,"C[C@H]1CN(C[C@H]2CN(c3ccc(C#N)c4nccnc34)C[C@@H]2C(F)(F)F)CC[C@H]1N [Example 72, 8-[(3S,4R)-3-[[(3S,4R)-4-amino-3-methyl-1-piperidyl]methyl]-4-(trifluoromethyl)pyrrolidin-1-yl]quinoxaline-5-carbonitrile]",7.89
22,"N#Cc1ccc(N2C[C@H](CN3CC4CCC(C3)C4N)[C@@H](C(F)(F)F)C2)c2nccnc12 (stereo partly drawn) [Example 73, 8-[(3S,4R)-3-[(8-amino-3-azabicyclo[3.2.1]octan-3-yl)methyl]-4-(trifluoromethyl)pyrrolidin-1-yl]quinoxaline-5-carbonitrile]",7.70
23,"N#Cc1ccc(N2C[C@H](CN3CCC(CN)CC3)[C@@H](C(F)(F)F)C2)c2nccnc12 [Example 74, 8-[(3S,4R)-3-[[4-(aminomethyl)-1-piperidyl]methyl]-4-(trifluoromethyl)pyrrolidin-1-yl]quinoxaline-5-carbonitrile]",7.55
24,"CC1(CN)CCCN(C[C@H]2CN(c3ccc(C#N)c4nccnc34)C[C@@H]2C(F)(F)F)C1 (stereo partly drawn) [Example 75, 8-[(3S,4R)-3-[[3-(aminomethyl)-3-methyl-1-piperidyl]methyl]-4-(trifluoromethyl)pyrrolidin-1-yl]quinoxaline-5-carbonitrile]",7.59

# — patent US20210253575A1, “PYRROLIDINE AMINE COMPOUNDS FOR THE TREATMENT OF AUTOIMMUNE DISEASE” (Hoffmann-La Roche Inc., priority 2018, published 2021)
